According to patent publication US20240124422A1, “MUTANT PI3K-ALPHA INHIBITORS AND THEIR USE AS PHARMACEUTICALS” (Prelude Therapeutics Incorporated, priority 2022, published 2024):
pIC50: −log10 of the molar value. Where two headings read alike, the source gives them in different places.

Assays:
[1] = test system: phosphorylation of AKT on Ser473 as a readout of the PI3K pathway in T-47D (heterozygous PIK3CA H1047R) cells; assay: PI3K pathway activation assay, pAKT Ser473 HTRF, T-47D cells; format: cell-based; conditions: two hours of treatment
Summary of the method: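 pAKT Ser473 measured by HTRF in SKBR3 (PIK3CA WT) and T-47D (PIK3CA H1047R) cells, 4,000/well. Signal normalised to background and DMSO controls as percent inhibition.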

[2] = test system: phosphorylation of AKT on Ser473 as a readout of the PI3K pathway in SKBR3 (PIK3CA WT) cells; assay: PI3K pathway activation assay, pAKT Ser473 HTRF, SKBR3 cells; format: cell-based; conditions: two hours of treatment
Experimental: The inhibitory activity of compounds was evaluated by measuring phosphorylation of AKT on Ser473 as a readout of the PI3K pathway using HTRF (CisBio catalog number: 64AKSPE). These studies were conducted in the T-47D (heterozygous PIK3CA H1047R) and SKBR3 (PIK3CA WT) cell lines. Cells were maintained in a 37° C. incubator at 5% CO2 in the following media: T-47D: RPMI 1640, ATCC© Modification (Gibco, A10491-01) supplemented with 10% v/v FBS (Gibco, 26140-079), 1% penicillin streptomycin (Gibco, 15140-122), and 7.4 ug/mL insulin (MilliporeSigma, I9278); SKBR3: McCoy's 5a (Modified) Medium (Gibco, 16600-082) supplemented with 10% v/v FBS (Gibco, 26140-079). Cells were seeded in 384-well plates at a density of 4,000 cells/well. Compounds dissolved in DMSO were added using a digital dispense (D300E, Tecan) 10-point serial dilution. After two hours of treatment, cells were lysed for thirty minutes and then incubated with detection reagents per HTRF kit material and manufacturer's instructions. Fluorescence signal was measured with a multimode plate reader (Envision 2105, Perkin Elmer). Fluorescent signal was normalized to background and DMSO controls to obtain percent inhibition/activity for each compound.

Question: `[2H]C([2H])([2H])c1cc(C(C)Nc2ccccc2C(=O)O)c2nc(N3CC4CC4C3)n(C)c(=O)c2c1` (single isomer, unassigned) [Example 68] was tested. Which pIC50 ([1]; Homo sapiens, T47D, 2 h) did it give?
Answer: > 6.30

Question: And the pIC50 ([2]; Homo sapiens, SK-BR-3, 2 h)?
Answer: < 5.00

Question: What does the source list for `COc1nc2c(C(C)Nc3ccccc3C(=O)O)cc(C)cc2c(=O)n1C` (stereo not shown) [Example 41, 2-[1-(2-methoxy-3,6-dimethyl-4-oxoquinazolin-8-yl)ethylamino]benzoic acid]?
Answer: pIC50 ([1]; Homo sapiens, T47D, 2 h): 5.00 to 6.30; pIC50 ([2]; Homo sapiens, SK-BR-3, 2 h): < 5.00

Question: With `Cc1cc(C(C)Nc2ccc(F)c(O)c2F)c2nc(N3Cc4ccccc4C3)n(C)c(=O)c2c1` (stereo not shown) [Example 11, 8-(1-((2,4-difluoro-3-hydroxyphenyl)amino)ethyl)-2-(isoindolin-2-yl)-3,6-dimethylquinazolin-4(3H)-one] as the compound, how does the pIC50 ([1]; Homo sapiens, T47D, 2 h) read?
Answer: 5.00 to 6.30

Question: And the pIC50 ([2]; Homo sapiens, SK-BR-3, 2 h)?
Answer: < 5.00

Question: How did the pIC50 ([1]; Homo sapiens, T47D, 2 h) turn out when `Cc1cc(C(C)Nc2ccccc2C(=O)O)c2nc(N3Cc4ccccc4C3)n(C(C)C)c(=O)c2c1` (stereo not shown) [Example 21, 2-((1-(2-(isoindolin-2-yl)-3-isopropyl-6-methyl-4-oxo-3,4-dihydroquinazolin-8-yl)ethyl)amino)benzoic acid] was run?
Answer: > 6.30

Question: And the pIC50 ([2]; Homo sapiens, SK-BR-3, 2 h)?
Answer: < 5.00

Question: With `Cc1cc(C(C)Nc2ccccc2C(=O)O)c2nc(N3Cc4ccccc4C3)n([C@H]3C[C@H](O)C3)c(=O)c2c1` (stereo partly shown) [Example 48, 2-((1-(3-((1r,3r)-3-Hydroxycyclobutyl)-2-(isoindolin-2-yl)-6-methyl-4-oxo-3,4-dihydroquinazolin-8-yl)ethyl)amino)benzoic acid] as the compound, how does the pIC50 ([1]; Homo sapiens, T47D, 2 h) read?
Answer: > 6.30

Question: What about the pIC50 ([2]; Homo sapiens, SK-BR-3, 2 h) of the same compound?
Answer: < 5.00

Question: `Cc1cc(C(C)Nc2ccccc2S(N)(=O)=O)c2nc(N3Cc4ccccc4C3)n(C)c(=O)c2c1` (stereo not shown) [Example 6, 2-((1-(2-(isoindolin-2-yl)-3,6-dimethyl-4-oxo-3,4-dihydroquinazolin-8-yl)ethyl)amino)benzenesulfonamide] was tested. Which pIC50 ([1]; Homo sapiens, T47D, 2 h) did it give?
Answer: > 6.30

Question: What about the pIC50 ([2]; Homo sapiens, SK-BR-3, 2 h) of the same compound?
Answer: < 5.00

Question: Which results are given for `Cc1cc(C(C)Nc2ccccc2C(=O)O)c2nc(N3CCCCCC3)n(C)c(=O)c2c1` (stereo not shown) [Example 55, 2-((1-(2-(azepan-1-yl)-3,6-dimethyl-4-oxo-3,4-dihydroquinazolin-8-yl)ethyl)amino)benzoic acid]?
Answer: pIC50 ([1]; Homo sapiens, T47D, 2 h): > 6.30; pIC50 ([2]; Homo sapiens, SK-BR-3, 2 h): < 5.00

Question: `Cc1cc(C(C)Nc2ccc(F)c(F)c2C(=O)O)c2nc(N3Cc4ccccc4C3)n(C)c(=O)c2c1` (stereo not shown) [Example 35, 2,3-difluoro-6-((1-(2-(isoindolin-2-yl)-3,6-dimethyl-4-oxo-3,4-dihydroquinazolin-8-yl)ethyl)amino)benzoic acid] was tested. Which pIC50 ([1]; Homo sapiens, T47D, 2 h) did it give?
Answer: > 6.30

Question: What about the pIC50 ([2]; Homo sapiens, SK-BR-3, 2 h) of the same compound?
Answer: < 5.00

Question: `Cc1cc(C(C)Nc2ccccc2C(=O)O)c2nc(N3Cc4ccc(F)cc4C3)n(C)c(=O)c2c1` (stereo not shown) [Example 2, 2-((1-(2-(5-fluoroisoindolin-2-yl)-3,6-dimethyl-4-oxo-3,4-dihydroquinazolin-8-yl)ethyl)amino)benzoic acid] was tested. Which pIC50 ([1]; Homo sapiens, T47D, 2 h) did it give?
Answer: > 6.30

Question: What about the pIC50 ([2]; Homo sapiens, SK-BR-3, 2 h) of the same compound?
Answer: < 5.00

Question: How did the pIC50 ([1]; Homo sapiens, T47D, 2 h) turn out when `Cc1cc(C(C)Nc2ccccc2-c2nnn[nH]2)c2nc(N3Cc4ccccc4C3)n(C)c(=O)c2c1` (stereo not shown) [Example 9, 8-(1-((2-(1H-tetrazol-5-yl)phenyl)amino)ethyl)-2-(isoindolin-2-yl)-3,6-dimethylquinazolin-4(3H)-one] was run?
Answer: 5.00 to 6.30

Question: What about the pIC50 ([2]; Homo sapiens, SK-BR-3, 2 h) of the same compound?
Answer: < 5.00

Question: What does the source list for `CC(Nc1ccccc1C(=O)O)c1cc(Br)cc2c(=O)n(C)c(N3Cc4ccccc4C3)nc12` (stereo not shown) [Example 70, 2-((1-(6-Bromo-2-(isoindolin-2-yl)-3-methyl-4-oxo-3,4-dihydroquinazolin-8-yl)ethyl)amino)benzoic acid]?
Answer: pIC50 ([1]; Homo sapiens, T47D, 2 h): > 6.30; pIC50 ([2]; Homo sapiens, SK-BR-3, 2 h): < 5.00

Question: What does the source list for `Cc1cc(C(C)Nc2cn(C)nc2C(=O)O)c2nc(N3Cc4ccccc4C3)n(C)c(=O)c2c1` (stereo not shown) [Example 34, 4-((1-(2-(isoindolin-2-yl)-3,6-dimethyl-4-oxo-3,4-dihydroquinazolin-8-yl)ethyl)amino)-1-methyl-1H-pyrazole-3-carboxylic acid]?
Answer: pIC50 ([1]; Homo sapiens, T47D, 2 h): 5.00 to 6.30; pIC50 ([2]; Homo sapiens, SK-BR-3, 2 h): < 5.00

Question: `CC(=O)N1CCN(c2nc3c(C(C)Nc4ccccc4C(=O)O)cc(C)cc3c(=O)n2C)CC1` (stereo not shown) [Example 46, 2-((1-(2-(4-acetylpiperazin-1-yl)-3,6-dimethyl-4-oxo-3,4-dihydroquinazolin-8-yl)ethyl)amino)benzoic acid] was tested. Which pIC50 ([1]; Homo sapiens, T47D, 2 h) did it give?
Answer: 5.00 to 6.30

Question: And the pIC50 ([2]; Homo sapiens, SK-BR-3, 2 h)?
Answer: < 5.00

Question: With `CNS(=O)(=O)c1ccccc1NC(C)c1cc(C)cc2c(=O)n(C)c(N3Cc4ccccc4C3)nc12` (stereo not shown) [Example 7, 2-((1-(2-(isoindolin-2-yl)-3,6-dimethyl-4-oxo-3,4-dihydroquinazolin-8-yl)ethyl)amino)-N-methylbenzenesulfonamide] as the compound, how does the pIC50 ([1]; Homo sapiens, T47D, 2 h) read?
Answer: 5.00 to 6.30

Question: What about the pIC50 ([2]; Homo sapiens, SK-BR-3, 2 h) of the same compound?
Answer: < 5.00

Question: How did the pIC50 ([1]; Homo sapiens, T47D, 2 h) turn out when `Cc1cc(C(C)Nc2ccc(F)cc2C(=O)O)c2nc(N3CC4CC4C3)n(C)c(=O)c2c1` (stereo not shown) [Example 123, 2-[1-[2-(3-Azabicyclo[3.1.0]hexan-3-yl)-3,6-dimethyl-4-oxoquinazolin-8-yl]ethylamino]-5-fluorobenzoic acid] was run?
Answer: > 6.30

Question: And the pIC50 ([2]; Homo sapiens, SK-BR-3, 2 h)?
Answer: < 5.00

Question: With `Cc1cc(C(C)Nc2ccccc2C(=O)O)c2nc(N(C)C)n(C)c(=O)c2c1` (stereo not shown) [Example 54, 2-[1-[2-(dimethylamino)-3,6-dimethyl-4-oxoquinazolin-8-yl]ethylamino]benzoic acid] as the compound, how does the pIC50 ([1]; Homo sapiens, T47D, 2 h) read?
Answer: 5.00 to 6.30

Question: And the pIC50 ([2]; Homo sapiens, SK-BR-3, 2 h)?
Answer: < 5.00

Question: Which results are given for `Cc1cc(C(C)Nc2ccccc2C(=O)O)c2nc(N3C[C@@H]4[C@H](C3)[C@H]4C(=O)N(C)C)n(C)c(=O)c2c1` (stereo partly drawn) [Example 90, 2-((1-(2-((1R,5S,6R)-6-(Dimethylcarbamoyl)-3-azabicyclo[3.1.0]hexan-3-yl)-3,6-dimethyl-4-oxo-3,4-dihydroquinazolin-8-yl)ethyl)amino)benzoic acid]?
Answer: pIC50 ([1]; read-out: T47D pAKT IC50): 5.00 to 6.30; pIC50 [2]: < 5.00

Question: How did the pIC50 ([1]; Homo sapiens, T47D, 2 h) turn out when `Cc1cc(C(C)Nc2ccc(C#N)cc2C(=O)O)c2nc(N3Cc4ccccc4C3)n(C)c(=O)c2c1` (stereo not shown) [Example 31, 5-cyano-2-((1-(2-(isoindolin-2-yl)-3,6-dimethyl-4-oxo-3,4-dihydroquinazolin-8-yl)ethyl)amino)benzoic acid] was run?
Answer: > 6.30

Question: What about the pIC50 ([2]; Homo sapiens, SK-BR-3, 2 h) of the same compound?
Answer: < 5.00

Question: What does the source list for `Cc1cc(C(C)Nc2ccc(F)c(F)c2C(=O)O)c2nc(N3Cc4ccccc4C3)n(CCCF)c(=O)c2c1` (stereo not shown) [Example 20, 2,3-difluoro-6-((1-(3-(3-fluoropropyl)-2-(isoindolin-2-yl)-6-methyl-4-oxo-3,4-dihydroquinazolin-8-yl)ethyl)amino)benzoic acid]?
Answer: pIC50 ([1]; Homo sapiens, T47D, 2 h): > 6.30; pIC50 ([2]; Homo sapiens, SK-BR-3, 2 h): < 5.00

Question: With `Cc1cc(C(C)Nc2ccccc2C(=O)NO)c2nc(N3Cc4ccccc4C3)n(C)c(=O)c2c1` (stereo not shown) [Example 10, N-Hydroxy-2-((1-(2-(isoindolin-2-yl)-3,6-dimethyl-4-oxo-3,4-dihydroquinazolin-8-yl)ethyl)amino)benzamide] as the compound, how does the pIC50 ([1]; Homo sapiens, T47D, 2 h) read?
Answer: 5.00 to 6.30

Question: What about the pIC50 ([2]; Homo sapiens, SK-BR-3, 2 h) of the same compound?
Answer: < 5.00

Question: With `Cc1cc(C(C)Nc2ccccc2C(=O)O)c2nc(N3CC4CC4C3)n(C)c(=O)c2c1` (single isomer, unassigned) [Example 24, 2-((1-(2-(3-azabicyclo[3.1.0]hexan-3-yl)-3,6-dimethyl-4-oxo-3,4-dihydro-quinazolin-8-yl)ethyl)amino)benzoic acid] as the compound, how does the pIC50 ([1]; Homo sapiens, T47D, 2 h) read?
Answer: > 6.30

Question: And the pIC50 ([2]; Homo sapiens, SK-BR-3, 2 h)?
Answer: < 5.00

Question: With `Cc1cc(C(C)Nc2ccccc2C(=O)O)c2nc(N3Cc4ccccc4C3)[nH]c(=O)c2c1` (stereo not shown) [Example 22, 2-((1-(2-(isoindolin-2-yl)-6-methyl-4-oxo-3,4-dihydroquinazolin-8-yl)ethyl)amino)benzoic acid] as the compound, how does the pIC50 ([1]; Homo sapiens, T47D, 2 h) read?
Answer: > 6.30

Question: And the pIC50 ([2]; Homo sapiens, SK-BR-3, 2 h)?
Answer: < 5.00

Question: `Cc1cc(C(C)Nc2ccccc2C(=O)O)c2nc(N3CC4CCC3C4)n(C)c(=O)c2c1` (single isomer, unassigned) [Example 100, 2-((1-(2-(2-Azabicyclo[2.2.1]heptan-2-yl)-3,6-dimethyl-4-oxo-3,4-dihydro-quinazolin-8-yl)ethyl)amino)benzoic acid] was tested. Which pIC50 ([1]; read-out: T47D pAKT IC50) did it give?
Answer: > 6.30

Question: What about the pIC50 [2] of the same compound?
Answer: < 5.00

Question: What does the source list for `Cc1cc(C(C)Nc2ccccc2C(=O)O)c2nc(N3CC4CCC3C4)n(C)c(=O)c2c1` (single isomer, unassigned) [Example 99, 2-((1-(2-(2-Azabicyclo[2.2.1]heptan-2-yl)-3,6-dimethyl-4-oxo-3,4-dihydro-quinazolin-8-yl)ethyl)amino)benzoic acid]?
Answer: pIC50 ([1]; Homo sapiens, T47D, 2 h): > 6.30; pIC50 ([2]; Homo sapiens, SK-BR-3, 2 h): < 5.00

Question: How did the pIC50 ([1]; read-out: T47D pAKT IC50) turn out when `Cc1cc(C(C)Nc2ccccc2C(=O)O)c2nc(N3C[C@@H]4C(C(=O)N(C)C5CCC5)[C@@H]4C3)n(C)c(=O)c2c1` (stereo partly drawn) [Example 82, 2-((1-(2-((1R,5S,6R)-6-(Cyclobutyl(methyl)carbamoyl)-3-azabicyclo[3.1.0]hexan-3-yl)-3,6-dimethyl-4-oxo-3,4-dihydroquinazolin-8-yl)ethyl)amino)benzoic acid] was run?
Answer: > 6.30

Question: What about the pIC50 [2] of the same compound?
Answer: < 5.00

Question: What does the source list for `COC(=O)NC1[C@H]2CN(c3nc4c(C(C)Nc5ccccc5C(=O)O)cc(C)cc4c(=O)n3C)C[C@@H]12` (stereo partly drawn) [Example 58, 2-((1-(2-((1R,5S,6s)-6-((methoxycarbonyl)amino)-3-azabicyclo[3.1.0]hexan-3-yl)-3,6-dimethyl-4-oxo-3,4-dihydroquinazolin-8-yl)ethyl)amino)benzoic acid]?
Answer: pIC50 ([1]; Homo sapiens, T47D, 2 h): > 6.30; pIC50 ([2]; Homo sapiens, SK-BR-3, 2 h): < 5.00
